Measured values: patent US7176185B2, “Short peptide carrier system for cellular delivery of agent” (TSRL, Inc., priority 2003, dated 2007)
Values belong to the compound of their own block, whether it stands above or below them.

Legend:
[1] = literature value (Bretschneider et al. 1999); 'parenteral' marks drugs given parenterally; cited from earlier work
[2] = biological target: T1, hpept1 dipeptide transporter (Homo sapiens, UniProt P46059); assay: Inhibition of 3H-Gly-Sar uptake in DC5 cell line (Ki determination); assay type: cell-based; details: 50 uM 3H-Gly-Sar, 10 min, 37° C., unit inferred, mM, read-out: TSRL - Ki
T1 construct: expressed in transfected cells; host or cells: DC5 = human medulloblastoma cell line Dpar transfected with a eukaryotic expression plasmid holding the hPept1 gene
T1 sequence (P46059 1-708): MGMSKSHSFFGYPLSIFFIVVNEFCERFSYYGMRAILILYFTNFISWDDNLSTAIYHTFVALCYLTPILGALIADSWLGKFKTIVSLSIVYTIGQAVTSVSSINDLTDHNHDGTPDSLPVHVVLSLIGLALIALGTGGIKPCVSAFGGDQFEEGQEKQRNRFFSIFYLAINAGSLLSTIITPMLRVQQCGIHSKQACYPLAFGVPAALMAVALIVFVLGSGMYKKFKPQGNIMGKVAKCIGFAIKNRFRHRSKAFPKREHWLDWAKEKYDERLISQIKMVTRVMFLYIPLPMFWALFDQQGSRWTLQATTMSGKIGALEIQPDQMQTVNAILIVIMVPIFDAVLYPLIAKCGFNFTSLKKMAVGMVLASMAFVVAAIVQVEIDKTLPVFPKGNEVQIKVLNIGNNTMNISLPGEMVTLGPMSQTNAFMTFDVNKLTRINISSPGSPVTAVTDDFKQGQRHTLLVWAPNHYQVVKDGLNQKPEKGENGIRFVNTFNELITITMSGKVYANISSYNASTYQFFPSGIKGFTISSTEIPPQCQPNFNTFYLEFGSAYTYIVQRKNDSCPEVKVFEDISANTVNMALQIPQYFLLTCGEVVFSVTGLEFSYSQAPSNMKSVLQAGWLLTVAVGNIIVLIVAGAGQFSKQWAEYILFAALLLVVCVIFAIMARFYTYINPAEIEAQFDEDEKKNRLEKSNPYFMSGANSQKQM
Text: The developed system functions as an initial screen for interaction with the dipeptide transporter by measuring the ability of a given test compound to inhibit the uptake of the marker dipeptide ^3H-Gly-Sar. Using this system in a 96-well format, one can rapidly screen compounds for their ability to bind to the dipeptide transporter by measuring the inhibition constant (Ki) of the compound against Gly-Sar uptake. In this assay, a positive result indicates binding, but not necessarily transport. Positive results are assessed for actual transport in conventional uptake assays.
The inhibitory Ki for a given compound is determined in DC5 cell line using the radioactive substrate 3H-glycine-sarcosine (GS). DC5 cells were plated (12,000 cells/well) in 96-well tissue culture plates (Falcon) and allowed to grow for 2 days. The cells were washed once with 200 ul of uptake buffer and aspirated. The plates were cooled to 4° C. and 25 ul of uptake buffer containing 50 uM Gly-Sar (0.5 uCi/ml) was added. The uptake buffer also contained the test β-lactam antibiotic, Cefaclor, over a range of concentrations. Uptake was initiated by placing the plate in a shaker water bath (37° C.) and terminated at 10 min by rapid washing with multiple changes of 4° C. PBS (Sigma). The radioactive peptide was extracted from the cell layer with 200 ul of methanol:water (1:1) and counted in 4 ml of CytoScint ES™ scintillation cocktail (ICN). Non-linear regression analysis of the data was used to determine the IC50 using the solver function in Microsoft Excel spreadsheets.

hPepT1 = biological target: T2, hPepT1 (Homo sapiens, UniProt P46059); assay: Inhibition of LALA uptake into DC5 cells by competitive substrates; assay type: cell-based; details: 30 minutes; for Inhibition of LALA uptake (FIG. 7, specificity): 25 μM LALA, 20 mM dipeptide or 40 mM amino acid
T2 construct: expressed in transfected cells; host or cells: DC5 = human medulloblastoma cell line Dpar transfected with a eukaryotic expression plasmid holding the hPept1 gene
T2 sequence (P46059 1-708): T1 sequence (P46059 1-708)
Method: After 30 minutes the cells are washed and the fluorescence measured in the cells.
DC5 and Dpar cells are incubated in transport buffer and the indicated concentrations of LALA added ? and (¦), respectively. These experiments are repeated in the presence of 20 mM Gly-Pro for DC5 (⋄) and Dpar (?). After 30 minutes, the cells are washed and processed for fluorescent determination. […] After 30 minutes the cells are washed and the fluorescence measured in the cells. […] Fluorescence imagining of LALA in DC5 cells is shown in FIG. 8, where cells on a polylysine coated slide are incubated in the transport buffer with 50 μM LALA in the presence (right image) or absence (left image) the hPepT1 competitive inhibitor Gly-Pro (20 mM) for 20 minutes at room temperature. Cells are washed with cold PBS and viewed with an inverted microscope and imaged with a digital camera, with the images being at the same magnification and exposure time.

Dpar cells = assay: LALA fluorescent uptake in parental Dpar cells; assay type: cell-based, human; details: 30 minutes, fluorescence
Method: (§1) FIG. 6 is a graph showing the uptake of LALA in DC5 and Dpar as a function of LALA concentration. DC5 and Dpar cells are incubated in transport buffer and the indicated concentrations of LALA added ? and (¦), respectively. These experiments are repeated in the presence of 20 mM Gly-Pro for DC5 ? and Dpar (?). After 30 minutes, the cells are washed and processed for fluorescent determination.
FIG. 7 is a bar graph showing specificity of LALA uptake. 25 μM of LALA is incubated in the presence 20 mM Gly-Sar ? 20 mM Gly-Pro ? 40 mM phenylalanine ? and 40 mM proline ? in either the DC5 or the Dpar, cell line. After 30 minutes the cells are washed and the fluorescence measured in the cells. […] There is minimal LALA uptake in the parental line Dpar.
(§2) […] and not Dpar specifically uptake LALA. […] After 30 minutes the cells are washed and the fluorescence measured in the cells. […] Because the marker probe is fluorescent, the system is amenable to more rapid throughput, through the use of automated fluorescent plate readers. Fluorescence imagining of LALA in DC5 cells is shown in FIG. 8, where cells on a polylysine coated slide are incubated in the transport buffer with 50 μM LALA in the presence (right image) or absence (left image) the hPepT1 competitive inhibitor Gly-Pro (20 mM) for 20 minutes at room temperature. […]

[3] = biological target: T3, DC5 cell line overexpressing HPEPT1 (Homo sapiens, UniProt P46059); assay: LALA fluorescent uptake in DC5 cells; assay type: cell-based; details: transport buffer, 30 minutes, fluorescence
T3 construct: expressed in transfected cells; host or cells: DC5 = human medulloblastoma cell line Dpar transfected with a eukaryotic expression plasmid holding the hPept1 gene
T3 sequence (P46059 1-708): T1 sequence (P46059 1-708)
Method: as §1
as §2, with “LALA. DC5 and Dpar cells are incubated in transport buffer and the indicated concentrations of LALA added ? and (¦), respectively. These experiments are repeated in the presence of 20 mM Gly-Pro for DC5 (⋄) and Dpar (?). After 30 minutes, the cells are washed and processed for fluorescent determination.” for “LALA.”

Ki [2]: 5.39 mM
Structure (SMILES): N[C@@H](C(=O)N[C@@H]1C(=O)N2C(C(=O)O)=C(Cl)CS[C@H]12)c1ccccc1 [Cefaclor]
Bioavailability [1]: 100

Ki [2]: 2.7 mM
Structure (SMILES): CC1=C(C(=O)O)N2C(=O)[C@@H](NC(=O)[C@H](N)c3ccc(O)cc3)[C@H]2SC1 [Cefadroxil]
Bioavailability [1]: 100

Ki [2]: 16.4 mM
Structure (SMILES): Cn1nnnc1SCC1=C(C(=O)O)N2C(=O)[C@@H](NC(=O)[C@H](O)c3ccccc3)[C@H]2SC1 [Cefamandole]
Bioavailability [1]: <1 parenteral

Ki [2]: 23.2 mM
Structure (SMILES): CO/N=C(\C(=O)N[C@@H]1C(=O)N2C(C(=O)O)=C(COC(N)=O)CS[C@H]12)c1ccco1 [Cefuroxime]
Bioavailability [1]: <1 parenteral

Ki [2]: 11.1 mM
Structure (SMILES): CC(=O)OCC1=C(C(=O)O)N2C(=O)[C@@H](NC(=O)Cc3cccs3)[C@H]2SC1 [Cephalothin]
Bioavailability [1]: <5 parenteral

Ki [2]: 7.02 mM
Structure (SMILES): CC1=C(C(=O)O)N2C(=O)[C@@H](NC(=O)[C@H](N)C3=CCC=CC3)[C@H]2SC1 [Cephradine]
Bioavailability [1]: 100

The remaining lines, values behind:

Structure (SMILES): CO/N=C(\C(=O)N[C@@H]1C(=O)N2C(C(=O)O)=C(CSc3nc(=O)c(=O)[nH]n3C)CS[C@H]12)c1csc(N)n1 [Ceftriaxon]
Bioavailability [1]: <5 parenteral
Ki [2]: > 20 mM

Structure (SMILES): NCC(=O)O.O=C(O)[C@@H]1CCCN1 [Gly-Pro, Glycine-Proline]
Inhibition of LALA uptake (FIG. 7, specificity) (hPepT1): strongly inhibited
Inhibition of LALA uptake (FIGS. 5 and 6) (hPepT1; 20 mM Gly-Pro, range of LALA concentrations): strongly inhibited

Structure (SMILES): Cc1c(CC(=O)NCCCCC(NC(=O)C(C)N)C(=O)O)c(=O)oc2cc(N)ccc12 [LALA, L-Ala-Lys-Nε-AMCA]
LALA uptake in parental line Dpar (Dpar cells): minimal
LALA uptake in DC5 [3]: specifically taken up

Structure (SMILES): N[C@@H](Cc1ccccc1)C(=O)O [phenylalanine]
Inhibition of LALA uptake (FIG. 7, specificity) (hPepT1): not by amino acids

Structure (SMILES): O=C(O)[C@@H]1CCCN1 [proline]
Inhibition of LALA uptake (FIG. 7, specificity) (hPepT1): not by amino acids
